Laboratory results from patent US9308214B2, “Method for moderately increasing the proton conductivity of biological membranes with the aid of mitochondria-targeted delocalized cations” (MITOTECH S.A., priority 2008, dated 2016).

Legend:
[1] = system: yeast Saccharomyces cerevisiae; assay: Programmed death in yeast induced by amiodarone (colony survival); type: cell-based; settings: 80 μM amiodarone; for survival of yeast cells (protective effect, in words): TPP tested from 100 nM to 400 nM; for survival of yeast cells: 1 hr at 30° C., survival without compound 2 percent, 3 independent experiments, p below 0.05
Description: Amiodarone (a calcium channel blocker) causes the death of the yeast Saccharomyces cerevisiae which by a number of features resembles apoptosis in higher eukaryotes. In the cells, amiodarone induces activation of a cascade of events leading to formation of reactive oxygen species and subsequent cell death. […] A source of formation of reactive oxygen species induced by amiodarone is a hyperpolarized mitochondrium.
The following compounds of structure (I) (SKQ1, SKQ3, and C12TPP) were selected for this study. […] Then a compound of structure (I) or mock and 80 μM amiodarone were added to the cell suspension. Cells were incubated for 1 hr at 30° C. and afterwards transferred to solid YPD medium containing 2% bactoagar. The number of colonies was counted after 2 days of incubation on solid medium. 100% survival corresponds to the number of colonies from zero time-point transferred to solid medium prior to addition of amiodarone.

[2] = Fluorescence correlation spectroscopy of SkQR1 micelles in aqueous solution with fatty acid (stearate); type: physicochemical
Procedure: Fluorescence correlation spectroscopy (FCS) is often used to study micellization of surfactants. In one report (Lu, et al. (2006) Analytica Chimica Acta, 556:216-225), R18, i.e., rhodamine with covalently attached fat tail was used as a marker. R18 itself forms large and poorly fluorescent aggregates in aqueous solution resulting in a small number of particles in the confocal volume (N) and a small fluorescence signal. When a detergent was added at a concentration above its CMC (the critical micelle concentration), an increase in total fluorescence and a significant increase in the number of particles N occurred. […] That was associated with lower diffusion coefficient of detergent micelles as compared to the R18 aggregates.
FIGS. 6A and B show the effect of a fatty acid (stearate) on the autocorrelation function of SkQR1 in water. […] For example, the number of particles in the confocal volume sharply increases. The constant of micelle formation for stearate is about 0.3 mM. In this case, fragmentation of the SkQR1 aggregates induced by such low concentrations of the fatty acid occurs. This fragmentation decreases the degree of the self-quenching of fluorescence that increases the total signal. […] The constant of micelle formation for anionic surfactants decreases under the influence of cationic surfactants or polymers. In that case, the total fluorescence signal was 141 kHz. […] The total fluorescence signal was 63 kHz that points to the beginning of the self-quenching of the dye in the micelles.
The fluctuations of the fluorescence signal in this case have no diffusion component yet. This process may be the output/input of SkQR1 molecules from water into micelles that can lead to fluctuations of the fluorescence due to the different quantum yield of fluorescence of the dye in polar and non-polar environments (Zettl, et al. (2005) J. Phys. Chem. B. 109:13397-13401).

[3] = Protonophore activity on black membrane model (diffusion potential on lipid bilayer); settings: C12-TPP 1 μM in both compartments; ΔpH=1 by KOH; palmitic acid 1 mg/ml in membrane vs absent; pH 7.5
Procedure: To test penetrating ability of mitochondria-targeted compounds of structure (I), a method based on the ability of ions to penetrate through the bilayer phospholipid membrane moving along concentration gradient was used. The two chambers filled with an aqueous solution are separated by the bilayer membrane, the compound tested is added to one of the chambers. If a charged compound is capable of penetrating through the bilayer membrane, fast diffusion of the compound from the chamber with its high concentration to the chamber with its low concentration occurs, thus difference in the potentials is formed on the membrane. For ions carrying one charge and capable of passive penetrating through the membrane, the 10-fold concentration gradient allows to produce the potential of 60 mV (according to the Nernst equation).
This method was used in various studies on the ability of ions to penetrate through a bilipid membrane and is described in Starkov, et al. (1997) Biochem. Biophys. Acta, 1318:159-172. With this method, C12-TPP (compound of structure (I)) was tested.
Experiments were carried out in a Teflon cuvette having two compartments, and in a 0.6-mm hole between the two compartments the membrane was formed. Medium contained 50 mM Tris-HCl, 100 mM KCl, pH=7.5. ΔpH=1 was created by adding KOH to one of the cuvette compartments. […]

Cc1c(C)c(O)c(CCCCCCCCCC[P+](c2ccccc2)(c2ccccc2)c2ccccc2)c(C)c1O [SkQ3]
survival of yeast cells (protective effect, in words) [1]: significantly increase the survival

Cc1c(O)cc(CCCCCCCCCC[P+](c2ccccc2)(c2ccccc2)c2ccccc2)c(O)c1C [SkQ1]
survival of yeast cells (protective effect, in words) [1]: significantly increase the survival

CC/N=c1/cc2oc3cc(NCC)c(C)cc3c(-c3ccccc3C(=O)OCCCCCCCCCCC3=CC(=O)C(C)=C(C)C3=O)c-2cc1C [SkQR1]
survival of yeast cells [1]: 7% | fluorescence signal from the sample ([2]; 1.5 μg/ml (about 5 μM) stearate): 67 kHz | aggregation state in aqueous solution ([2]; aggregates degrade in presence of low concentrations of fatty acids): forms micelles (or large aggregates) in aqueous solution | total fluorescence signal ([2]; further increase in concentration of stearate (above 50 μM)): 63 kHz | fluorescence signal from the sample ([2]; in water, absence of stearate): 44 kHz | total fluorescence signal ([2]; stearate up to 50 μM): 141 kHz

COc1c(O)c(C)c(CCCCCCCCCC[P+](c2ccccc2)(c2ccccc2)c2ccccc2)c(O)c1OC [MitoQ]
survival of yeast cells [1]: 8%

CCCCCCCCCCCC[P+](c1ccccc1)(c1ccccc1)c1ccccc1 [C12-TPP, dodecyl triphenylphosphonium]
survival of yeast cells (protective effect, in words) [1]: even more effective than the tested antioxidants | optimum concentration of the protective effect ([1]; pronounced concentration dependence): 200 nM | diffusion potential (ΔΨ) in response to ΔpH creation [3]: presence of a fatty acid in the membrane facilitates an increase in diffusion potential
